According to US8129371B2, “Thienopyrimidine and pyrazolopyrimidine compounds and their use as mTOR kinase and PI3 kinase inhibitors” (Wyeth LLC, priority 2007, dated 2012):
Where two headings read alike, the source gives them in different places.

Key:
[1] = biological target: T1, PI3K (Homo sapiens, UniProt P48736); experiment: Fluorescence polarization assay for PI3K; format: biochemical; conditions: read-out: PI3 Kinase γ IC50
T1 construct: PI3 Kinase γ IC50; other: PI3 Kinase γ; other: PI3 Kinase γ isoform, fluorescence polarization
In short: (§1)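 PI3K was preincubated with compound (final DMSO 1%), and the reaction was started with PIP2/ATP substrate and run 30–60 min. It was stopped with a detector mix giving 10 nM red probe and 70 nM GST-GRP.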

[2] = biological target: T2, PI3K (Homo sapiens, UniProt P42336); experiment: Fluorescence polarization assay for PI3K; format: biochemical; conditions: read-out: PI3 Kinase α IC50
T2 construct: PI3 Kinase α IC50; other: PI3 Kinase α; other: PI3 Kinase α isoform, fluorescence polarization
In short: as §1

[3] = system: prostate line LNCap; experiment: In vitro cell culture growth assay (MTS), LNCap; format: cell-based; conditions: Homo sapiens, LNCaP, 72 h, LNCap cells, three days after drug treatment
In short: (§2)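 Growth is reported as percent of vehicle-treated control grown in the same plate, with viability determined by metabolic conversion of MTS dye and absorbance read at 490 nm. Compounds were applied one day after plating and left for three days.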

[4] = system: breast line MDA468; experiment: In vitro cell culture growth assay (MTS), MDA468; format: cell-based; conditions: Homo sapiens, 72 h, MDA468 cells, three days after drug treatment
In short: as §2

[5] = biological target: T3, Human mTOR (FLAG-TOR) (Homo sapiens, UniProt P42345); experiment: Human mTOR kinase assay with purified enzyme, DELFIA format; format: biochemical
T3 construct: FLAG
In short: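 Purified FLAG-mTOR in HEPES pH 7.4 buffer with 10 mM MnCl2 was preincubated with inhibitor and reacted 2 h at room temperature with His6-S6K substrate, then stopped with EDTA/EGTA. Phospho-T389 S6K detected by DELFIA with Eu-labelled antibody (40 ng/mL) after plate capture; inhibition computed from signal.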

T2 sequence (P42336 whole entry, canonical isoform): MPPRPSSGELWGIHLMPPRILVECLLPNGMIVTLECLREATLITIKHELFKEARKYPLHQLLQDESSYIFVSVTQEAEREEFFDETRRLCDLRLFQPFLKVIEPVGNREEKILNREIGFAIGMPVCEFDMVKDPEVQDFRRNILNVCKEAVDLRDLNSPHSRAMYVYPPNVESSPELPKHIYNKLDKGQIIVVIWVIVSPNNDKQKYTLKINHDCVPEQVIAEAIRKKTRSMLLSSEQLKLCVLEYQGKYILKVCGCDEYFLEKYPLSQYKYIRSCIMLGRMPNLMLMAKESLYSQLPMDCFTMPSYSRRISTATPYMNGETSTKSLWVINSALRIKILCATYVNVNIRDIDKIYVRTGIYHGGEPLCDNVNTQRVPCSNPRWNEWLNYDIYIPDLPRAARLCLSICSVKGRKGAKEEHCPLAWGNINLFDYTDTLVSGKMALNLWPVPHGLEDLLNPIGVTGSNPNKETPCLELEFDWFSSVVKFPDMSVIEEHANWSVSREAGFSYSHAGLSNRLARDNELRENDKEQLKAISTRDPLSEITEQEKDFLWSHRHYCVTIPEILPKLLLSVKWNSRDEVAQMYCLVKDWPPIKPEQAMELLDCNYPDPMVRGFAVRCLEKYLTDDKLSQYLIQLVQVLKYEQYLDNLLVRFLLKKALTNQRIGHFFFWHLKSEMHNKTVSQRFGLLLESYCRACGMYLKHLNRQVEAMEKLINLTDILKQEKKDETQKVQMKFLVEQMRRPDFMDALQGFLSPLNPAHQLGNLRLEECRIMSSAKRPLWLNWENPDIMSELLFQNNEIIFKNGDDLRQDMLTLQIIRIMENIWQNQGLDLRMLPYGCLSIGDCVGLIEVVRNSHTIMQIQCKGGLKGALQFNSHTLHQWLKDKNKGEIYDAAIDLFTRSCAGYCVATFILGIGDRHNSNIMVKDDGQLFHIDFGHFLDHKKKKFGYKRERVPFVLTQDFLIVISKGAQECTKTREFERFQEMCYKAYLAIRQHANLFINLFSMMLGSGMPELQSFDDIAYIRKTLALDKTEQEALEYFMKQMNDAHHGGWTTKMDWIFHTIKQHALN
T1 sequence (P48736 whole entry, canonical isoform): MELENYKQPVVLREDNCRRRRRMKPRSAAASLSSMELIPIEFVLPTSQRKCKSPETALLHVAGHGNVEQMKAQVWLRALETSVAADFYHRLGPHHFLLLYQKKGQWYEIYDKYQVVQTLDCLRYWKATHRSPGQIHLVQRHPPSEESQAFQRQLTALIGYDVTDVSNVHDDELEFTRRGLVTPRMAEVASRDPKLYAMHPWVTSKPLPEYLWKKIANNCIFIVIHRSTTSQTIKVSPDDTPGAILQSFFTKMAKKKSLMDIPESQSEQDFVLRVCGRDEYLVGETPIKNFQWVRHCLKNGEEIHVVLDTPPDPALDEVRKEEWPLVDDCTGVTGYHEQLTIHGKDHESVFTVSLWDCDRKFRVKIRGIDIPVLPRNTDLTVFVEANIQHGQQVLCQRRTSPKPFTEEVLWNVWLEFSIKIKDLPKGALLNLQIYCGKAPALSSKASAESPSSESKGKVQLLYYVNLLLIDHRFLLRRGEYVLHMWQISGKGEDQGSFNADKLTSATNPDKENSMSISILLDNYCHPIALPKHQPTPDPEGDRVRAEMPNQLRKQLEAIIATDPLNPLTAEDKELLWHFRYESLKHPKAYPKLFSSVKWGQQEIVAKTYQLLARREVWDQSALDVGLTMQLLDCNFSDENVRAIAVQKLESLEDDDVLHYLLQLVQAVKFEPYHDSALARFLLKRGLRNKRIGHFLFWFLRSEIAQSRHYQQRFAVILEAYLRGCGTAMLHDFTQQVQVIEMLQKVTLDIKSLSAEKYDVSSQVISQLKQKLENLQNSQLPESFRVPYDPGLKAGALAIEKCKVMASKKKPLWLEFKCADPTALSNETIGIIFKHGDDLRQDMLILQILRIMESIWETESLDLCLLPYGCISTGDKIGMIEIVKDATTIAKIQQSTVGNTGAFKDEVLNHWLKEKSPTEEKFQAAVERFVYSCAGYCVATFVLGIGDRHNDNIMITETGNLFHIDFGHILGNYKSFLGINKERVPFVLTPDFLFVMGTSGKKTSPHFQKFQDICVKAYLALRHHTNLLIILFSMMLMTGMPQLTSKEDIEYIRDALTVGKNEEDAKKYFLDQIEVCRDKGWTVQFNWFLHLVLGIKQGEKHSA

| Compound | IC50 ([1]; PI3 Kinase γ) | IC50 ([2]; PI3 Kinase α) | IC50 [3] | IC50 [5] | IC50 ([1]; PI3 Kinase γ isoform, fluorescence polarization) | IC50 ([2]; PI3 Kinase α isoform, fluorescence polarization) | IC50 ([5]; purified human mTOR enzyme, DELFIA format) | IC50 [4] |
| --- | --- | --- | --- | --- | --- | --- | --- | --- |
| CCn1ncc2c(N3CC4CCC(C3)O4)nc(-c3ccc(NC(=O)NCCCN)cc3)nc21 [Example 176, 1-(3-aminopropyl)-3-{4-[1-ethyl-4-(8-oxa-3-azabicyclo[3.2.1]oct-3-yl)-1H-pyrazolo[3,4-d]pyrimidin-6-yl]phenyl}urea] | 9500 nM | 386 nM | 5500 nM | 3.55 nM | – | – | – | 28000 nM |
| O=C(Nc1ccc(-c2nc(N3C4CCC3COC4)c3cnn(CC(F)(F)F)c3n2)cc1)Nc1ccc(N2CCOCC2)nc1 [Example 274, 1-(6-morpholin-4-ylpyridin-3-yl)-3-{4-[4-(3-oxa-8-azabicyclo[3.2.1]oct-8-yl)-1-(2,2,2-trifluoroethyl)-1H-pyrazolo[3,4-d]pyrimidin-6-yl]phenyl}urea] | 7310 nM | 1210 nM | < 1 nM | 0.245 nM | – | – | – | 20 nM |
| COC(=O)Nc1ccc(-c2nc(N3CC4CCC(C3)O4)c3cnn(C4CCN(C(=O)OC)CC4)c3n2)cc1 [Example 119, methyl 4-[6-{4-[(methoxycarbonyl)amino]phenyl}-4-(8-oxa-3-azabicyclo[3.2.1]oct-3-yl)-1H-pyrazolo[3,4-d]pyrimidin-1-yl]piperidine-1-carboxylate] | > 10000 nM | 4670 nM | 180 nM | 3.6 nM | – | – | – | 1200 nM |
| O=C(Nc1ccc(-c2nc(N3CC4CCC(C3)O4)c3cnn(CCO)c3n2)cc1)NC1CC1 [Example 197, 1-cyclopropyl-3-{4-[1-(2-hydroxyethyl)-4-(8-oxa-3-azabicyclo[3.2.1]oct-3-yl)-1H-pyrazolo[3,4-d]pyrimidin-6-yl]phenyl}urea] | 12000 nM | 1340 nM | 400 nM | 2.85 nM | – | – | – | 1400 nM |
| Nc1cccc(COC(=O)Nc2ccc(-c3nc(N4CC5CCC(C4)O5)c4cnn(CC(F)(F)F)c4n3)cc2)c1 [Example 254, 3-aminobenzyl {4-[4-(8-oxa-3-azabicyclo[3.2.1]oct-3-yl)-1-(2,2,2-trifluoroethyl)-1H-pyrazolo[3,4-d]pyrimidin-6-yl]phenyl}carbamate] | 12000 nM | 9650 nM | 6200 nM | 1620 nM | – | – | – | 200 nM |
| CCn1ncc2c(N3CC4CCC(C3)O4)nc(-c3ccc(NC(=O)NCCC(=O)NCCN(C)C)cc3)nc21 [Example 279] | 8110 nM | 1830 nM | 3200 nM | 23.5 nM | – | – | – | 6000 nM |

Further compounds by falling IC50 [3], results first:

| IC50 ([1]; PI3 Kinase γ) | IC50 ([2]; PI3 Kinase α) | IC50 [3] | IC50 [5] | IC50 ([1]; PI3 Kinase γ isoform, fluorescence polarization) | IC50 ([2]; PI3 Kinase α isoform, fluorescence polarization) | IC50 ([5]; purified human mTOR enzyme, DELFIA format) | Compound | IC50 [4] |
| --- | --- | --- | --- | --- | --- | --- | --- | --- |
| > 10000 nM | 1620 nM | 38 nM | 0.63 nM | – | – | – | CNC(=O)Nc1ccc(-c2nc(N3CC4CCC(C3)O4)c3cnn(CC(F)(F)F)c3n2)cc1 [Example 1, 1-methyl-3-{4-[4-(8-oxa-3-azabicyclo[3.2.1]oct-3-yl)-1-(2,2,2-trifluoroethyl)-1H-pyrazolo[3,4-d]pyrimidin-6-yl]phenyl}urea] | 46 nM |
| – | – | 7 nM | – | 1850 nM | 238 nM | 0.405 nM | CN1CCN(C2CCC(n3ncc4c(N5CC6CCC(C5)O6)nc(-c5ccc(NC(=O)Nc6cccnc6)cc5)nc43)CC2)CC1 (centres unmarked) [Example 330, 1-(4-{1-[4-(4-methylpiperazin-1-yl)cyclohexyl]-4-(8-oxa-3-azabicyclo[3.2.1]oct-3-yl)-1H-pyrazolo[3,4-d]pyrimidin-6-yl}phenyl)-3-pyridin-3-ylurea] | 60 nM |
| 11300 nM | 274 nM | 6 nM | 0.49 nM | – | – | – | O=C(Nc1ccc(-c2nc(N3CC4CCC(C3)O4)c3cnn(CCO)c3n2)cc1)Nc1ccc(N2CCOCC2)cc1 [Example 204, 1-{4-[1-(2-hydroxyethyl)-4-(8-oxa-3-azabicyclo[3.2.1]oct-3-yl)-1H-pyrazolo[3,4-d]pyrimidin-6-yl]phenyl}-3-(4-morpholin-4-ylphenyl)urea] | 35 nM |
| 260 nM | 70 nM | 4 nM | 0.445 nM | – | – | – | CN1CCN(c2ccc(NC(=O)Nc3ccc(-c4nc(N5CC6CCC(C5)O6)c5cnn(C)c5n4)cc3)cc2)CC1 [Example 236, 1-{4-[1-methyl-4-(8-oxa-3-azabicyclo[3.2.1]oct-3-yl)-1H-pyrazolo[3,4-d]pyrimidin-6-yl]phenyl}-3-[4-(4-methylpiperazin-1-yl)phenyl]urea] | 43 nM |
